# Values joined by “and” are separate entries in the source; they are usually repeats but may differ in a detail not shown here. Identical values can stand only once.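 Method: 48-hour compound exposure of cells in 96-well plates, five concentrations, linear interpolation of endpoints. GI50 is the concentration that inhibits growth by half. TGI: concentration producing complete growth inhibition.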
# Columns and labels:
# Experiment in all cases: DTP human tumour cell line panel, 48 h
# [1] = tested on: OVCAR-4 ovarian
# [2] = tested on: ACHN renal
# [3] = tested on: HT29 colon
# [4] = tested on: SK-OV-3 ovarian
# [5] = tested on: MDA-MB-435
# [6] = tested on: OVCAR-8 ovarian
# [7] = tested on: PC-3 prostate
# [8] = tested on: OVCAR-3 ovarian
# [9] = tested on: RPMI-8226 leukemia
# [10] = tested on: TK-10 renal
SMILES,GI50 [1],TGI [1],GI50 [2],TGI [2],GI50 [3],TGI [3],GI50 [4],TGI [4],GI50 [5],TGI [5],GI50 [6],TGI [6],GI50 [7],TGI [7],GI50 [8],TGI [8],GI50 [9],TGI [9],GI50 [10],TGI [10]
NC(N)=NC(N)=NCCCc1ccco1,96.8 µM,268 µM,> 500 µM,> 500 µM,> 500 µM,> 500 µM,142 µM,> 500 µM,21.5 µM,82.4 µM,31.8 µM,190 µM,> 500 µM,> 500 µM,114 µM,329 µM,23.7 µM,101 µM,22.7 µM,119 µM
Cc1[nH]c(N)nc(=S)c1CCC(=O)O,–,> 100 µM,–,> 100 µM,–,> 100 µM,–,> 100 µM,–,> 100 µM,–,> 100 µM,–,> 100 µM,–,> 100 µM,–,> 100 µM,–,> 100 µM
O=C(/C=C1\C(=O)N(Cc2ccccc2)c2ccccc21)c1ccc(OCCN2CCCCC2)cc1,2.99 µM,11.3 µM,1.63 µM,2.98 µM,1.82 µM,3.36 µM,15 µM,28.2 µM,2.49 µM,9.33 µM,2.13 µM,4.16 µM,1.85 µM,3.92 µM,1.75 µM,3.2 µM,2.07 µM,4.72 µM,1.58 µM,2.97 µM
O=C(c1ccco1)c1c(C(F)(F)F)n([O-])c2cc(C(F)(F)F)ccc2[n+]1=O,1.35 µM,3.94 µM,0.338 µM,0.748 µM,1.25 µM,2.84 µM,1.65 µM,3.13 µM,1.47 µM,3.1 µM,0.688 µM,–,0.163 µM,0.559 µM,1.43 µM,3.13 µM,0.455 µM,1.19 µM,1.57 µM,3.1 µM
CC(=O)O[C@H]1C(=O)[C@@]2(C)[C@H]([C@H](OC(=O)c3ccccc3)[C@]3(O)C[C@H](OC(=O)[C@H](OC(=O)OC[C@H]4COC(C)(C)O4)[C@@H](NC(=O)c4ccccc4)c4ccccc4)C(C)=C1C3(C)C)[C@]1(OC(C)=O)CO[C@@H]1C[C@@H]2O,> 33.3 µM,> 33.3 µM,0.343 µM,> 33.3 µM,0.0059 µM,> 33.3 µM,0.232 µM,> 33.3 µM,0.00333 µM,0.00852 µM,0.0598 µM,> 33.3 µM,0.0305 µM,> 33.3 µM,0.0109 µM,0.252 µM,0.00754 µM,> 33.3 µM,0.492 µM,> 33.3 µM
Cc1ccc2c(c1)C(=O)c1c-2c(OCCCN(C)C)nc2ccccc12,2.73 µM,13.1 µM,0.731 µM,2.11 µM,0.71 µM,3.33 µM,4.47 µM,17.4 µM,1.54 µM,2.97 µM,2.93 µM,17 µM,2.26 µM,7.65 µM,5.72 µM,19.8 µM,2.71 µM,7.93 µM,7.9 µM,23.3 µM
CC(C)=CC(=O)N[C@H]1CC[C@]2(C)C3CC[C@]4(C)C(C(C)N(C)C)=CCC4C3CCC2[C@H]1O (some centres undefined),5.88 µM,20.8 µM,7.95 µM,21.3 µM,0.676 µM,2.92 µM,12.1 µM,24.6 µM,2 µM,4.53 µM,13.9 µM,> 51.8 µM,3.88 µM,18.1 µM,4.12 µM,15.7 µM,2.41 µM,9.3 µM,11 µM,26.3 µM
CO[C@H]1C[C@](C)(O)Cc2cc3c(c(O)c21)C(=O)c1c(O)cc2c(c1C3=O)O[C@@H]1O[C@@]2(C)[C@H](O)[C@@H](N(C)C)[C@@H]1O,1.87 µM,3.46 µM and 12.6 µM,0.107 µM,1.31 µM and 1.9 µM,1.56 µM,5.79 µM and 15.6 µM,0.749 µM,2.45 µM and 3.67 µM,–,5.23 µM,1.07 µM,3.36 µM and 4.97 µM,–,15.9 µM,1.92 µM,4.03 µM and 8.09 µM,0.667 µM and 0.494 µM,3.66 µM and 10.9 µM,3.89 µM,6.49 µM and 21.5 µM
O=C(C#Cc1ccccc1)C1=Cc2ccccc2OC1,–,8.9 µM,–,5.26 µM,–,5.02 µM,–,30.9 µM,–,12.5 µM,–,5.85 µM,–,22.2 µM,–,5.35 µM,–,58.7 µM,–,3.58 µM
COc1ccc(/C(C#N)=C/c2cc(OC)c(OC)c(OC)c2)cc1,38.4 µM,> 100 µM,23.5 µM,> 100 µM,11.8 µM,85.8 µM,35.8 µM,> 100 µM,2.19 µM,12.5 µM,30.7 µM,> 100 µM,15.6 µM,67.9 µM,33.8 µM,> 100 µM,16.6 µM,56.1 µM,37.4 µM,> 100 µM
O=C(CI)Nc1ccc(O)c2ccccc12,0.575 µM,1.23 µM,1.49 µM,2.84 µM,0.504 µM,2.8 µM,4.27 µM,14.8 µM,1.9 µM,4.34 µM,1.93 µM,7.15 µM,2.38 µM,9.69 µM,0.857 µM,2.23 µM,1.65 µM,4.61 µM,1.72 µM,3.75 µM
C=C1C(=O)O[C@H]2[C@H]1CC/C(Cn1cc(-c3ccc(F)cc3)nn1)=C\CC[C@@]1(C)O[C@@H]21,1.29 µM,3.03 µM,0.182 µM,0.445 µM,0.695 µM,2.15 µM,9.78 µM,21.4 µM,1 µM,2.39 µM,1.66 µM,3.85 µM,2 µM,4.07 µM,0.491 µM,1.69 µM,1.41 µM,4.92 µM,1.24 µM,2.53 µM
CC(=O)OC12c3ccccc3-c3ccccc3C1C(C(=O)O)C2C(=O)O (centres undefined),–,> 10 µM,–,> 10 µM,–,> 10 µM,–,> 10 µM,–,> 10 µM,–,> 10 µM,–,> 10 µM,–,> 10 µM,–,> 10 µM,–,> 10 µM
CCC1(OC(=O)CN)C(=O)OCc2c1cc1n(c2=O)Cc2cc3ccccc3nc2-1 (centres undefined),0.256 µM,0.994 µM and 4.55 µM,0.00476 µM,0.183 µM and 0.0628 µM,0.111 µM and 0.0374 µM,> 100 µM,0.0224 µM,> 54.3 µM,0.13 µM,0.348 µM and 0.504 µM,0.04 µM and 0.0227 µM,–,0.172 µM,> 100 µM,0.308 µM,0.731 µM and 0.557 µM,0.031 µM,0.209 µM,0.721 µM,15.1 µM
Cc1c(N)nc(C(CC(N)=O)NCC(N)C(N)=O)nc1C(=O)NC(C(=O)NC(C)C(O)C(C)C(=O)NC(C(=O)NCCc1nc(-c2nc(C(=O)NCCCNC(C)c3ccccc3)cs2)cs1)C(C)O)C(OC1OC(CO)C(O)C(O)C1OC1OC(CO)C(O)C(OC(N)=O)C1O)c1cnc[nH]1 (centres undefined),81.5 µM,33.7 µM and > 100 µM,–,0.189 µM and 1.48 µM,–,50 µM and > 100 µM,–,45.6 µM,76 µM,> 100 µM,–,50 µM and > 100 µM,38.8 µM,> 100 µM,79.2 µM,38.3 µM and > 100 µM,50.4 µM,20.3 µM and > 100 µM,> 100 µM,50 µM and > 100 µM
Cc1c(Cl)cccc1NC(=O)/C=C/c1ccccc1,–,> 100 µM,–,> 100 µM,–,> 100 µM,–,> 100 µM,–,> 100 µM,–,> 100 µM,–,> 100 µM,–,> 100 µM,–,> 100 µM,–,> 100 µM
CC(=O)/C=C/C1=C(c2csc3ccccc23)c2ccccc2CC1,17.8 µM,> 100 µM,25.4 µM,88.3 µM,21.3 µM,> 100 µM,22.4 µM,> 100 µM,21.6 µM,70.7 µM,30.4 µM,> 100 µM,29.9 µM,> 100 µM,13.6 µM,43.3 µM,8.69 µM,47.3 µM,23.5 µM,92.9 µM
C[C@H]1CNC(=O)c2cnn3ccc(nc23)N[C@H](C)c2cc(F)ccc2O1,1.67 µM,26.6 µM,0.558 µM,4.36 µM,0.457 µM,–,0.641 µM,10 µM,8.84 µM,> 91.2 µM,2.54 µM,> 55.1 µM,1.53 µM,> 67 µM,1.32 µM,19.6 µM,10.3 µM,41.6 µM,0.749 µM,3.12 µM
CC(C)c1cccc(O)c(=O)c1,–,> 100 µM,1.75 µg/mL,18.3 µg/mL and 48.9 µM,1.34 µg/mL,–,–,> 100 µM,2.14 µg/mL,39 µg/mL,2 µg/mL,–,2.6 µg/mL,> 75 µg/mL,2.5 µg/mL,–,0.826 µg/mL,–,17.3 µg/mL,> 75 µg/mL and > 100 µM
COC(=O)c1c2c(c(C)[n+]([O-])c1C)C(=O)C=C(NCc1cccc(Cl)c1)C2=O,0.21 µM,0.938 µM,0.661 µM,2.04 µM,0.31 µM,–,1.92 µM,5.14 µM,0.116 µM,0.251 µM,0.275 µM,1.21 µM,0.257 µM,2.6 µM,0.221 µM,0.665 µM,0.86 µM,4.28 µM,2.43 µM,6.52 µM
COC(=O)Nc1nc2ccc(C(=O)c3ccccc3)cc2[nH]1,3.88 µM and 3.13 µM,> 100 µM,2.23 µM and 1.33 µM,> 100 µM,0.363 µM and 0.26 µM,8.21 µM and 11.2 µM,0.435 µM and 0.467 µM,–,0.178 µM and 0.0343 µM,0.485 µM and 0.211 µM,0.757 µM and 0.486 µM,> 100 µM,0.405 µM and 0.25 µM,> 100 µM and 19.1 µM,0.324 µM and 0.172 µM,0.864 µM and 0.415 µM,0.903 µM and 0.297 µM,> 100 µM and 15 µM,–,> 100 µM
CCCCCCCCCCCCCCCCOP(=O)([O-])OCC[N+](C)(C)C,2.88 µM,12.6 µM and 38.6 µM,1.6 µM,3.63 µM and 30.8 µM,0.39 µM,–,1.2 µM,9.4 µM and 57.1 µM,2 µM,5.23 µM and 39.3 µM,3.31 µM,11.8 µM and 48.3 µM,0.277 µM,1.51 µM and 7.73 µM,3.74 µM,14.8 µM and 48.4 µM,0.39 µM,–,0.182 µM,–
Cn1c(-c2ccccc2)c(/C=C/C2=[N+](C)c3ccccc3C2(C)C)c2ccccc21,1.81 µM,14.4 µM,3.05 µM,11.7 µM,0.711 µM,7.59 µM,2.38 µM,8.03 µM,0.486 µM,4.02 µM,0.84 µM,8.95 µM,0.575 µM,9.16 µM,0.664 µM,6.37 µM,0.167 µM,0.911 µM,1.35 µM,11.5 µM
C[C@]12CC[C@H]3[C@@H](CC4SC(N)=NC45C/C(=N/NC(N)=O)CC[C@]35C)[C@@H]1CCC2=O (some centres undefined),1.74 µM,3.17 µM,1.8 µM,3.19 µM,1.88 µM,3.73 µM,6.21 µM,22.3 µM,1.33 µM,2.7 µM,1.85 µM,3.63 µM,1.25 µM,2.75 µM,1.87 µM,3.44 µM,0.3 µM,1.37 µM,2.29 µM,5.45 µM
O=CN1N=C(c2cccc(Nc3ccnc4cc(Cl)ccc34)c2)CC1c1ccccc1 (centres undefined),0.536 µM,> 100 µM,0.778 µM,> 79.4 µM,0.327 µM,1.15 µM,0.363 µM,14.3 µM,0.0889 µM,0.432 µM,0.553 µM,7.5 µM,0.306 µM,42.7 µM,0.269 µM,0.774 µM,0.471 µM,4.51 µM,0.345 µM,16.4 µM
O=C(Nc1ccc(F)cc1)Nc1ccc(Br)c(C(F)(F)F)c1,2.13 µM,9.75 µM,2.09 µM,7.64 µM,2.3 µM,10.9 µM,2.16 µM,6.27 µM,2.4 µM,8.59 µM,2.95 µM,15.2 µM,0.847 µM,9.24 µM,1.65 µM,11.6 µM,1.03 µM,4.96 µM,2.33 µM,7.43 µM

# From PubChem BioAssay (NCI)
